Laboratory results from patent publication US20100016232A1, “Treatment Of Inflammatory Diseases With Mammal Beta Defensins” (Novozymes A/S, priority 2008, published 2010).
Where no end group is shown, it is not given here.

What was measured:
[1] = test system: TNF production from human peripheral blood mononuclear cells (PBMC); test: TNF production from human PBMC, Cytometric Bead Array; assay type: cell-based
Experimental: (§1) Peripheral blood was drawn from healthy volunteers (with approval from the relevant ethical committee in Denmark). Heparinized blood was diluted 1/1 v/v with RPMI and were subjected to Ficoll density centrifugation within 2 h of drawing. Plasma was collected from the top from individual donors and was kept on ice until it was used at 2% in the culture medium (autologous culture medium). Isolated PBMC were resuspended in autologous culture medium and seeded in 96-well culture plates with 255.000 cells per well in a total of 200 μl. […] The concentrations used for stimulation were optimized on 3 different donors in initial experiments, for LPS two different concentrations were used to be sure to be on a cytokine level that is possible to modulate. In some experiments PBMC were treated with Dexamethason and Indomethacin alone and together with LPS or LTA as a control on downregulation of inflammatory cytokines. The supernatants were collected after incubation at 37° C. for 24 hours, and stored at −80° C. until cytokine measurement. Viability was measured by Alamar Blue (Biosource, DALL 1100) in all experiments and in some cases also by MTS (Promega) according to manufacturer's instruction and was in some experiments also judged by counting of the cells by a Nucleocounter.
(§2) Cytokine production in supernatants was measured by flow cytometry with a human inflammation cytometric bead array (CBA) according to manufacturer's instructions (BD) on a FACSarray flow cytometer. The following cytokines were measured: IL-8, IL-1β, IL-10, TNF, IL-12 p70, IL-6. In some experiments, cytokines were measured by ELISA kits from R&D systems (IL-10, TNF-α, IL-1β) according to the manufacturer' instruction.

[2] = test system: IL-1β production from human peripheral blood mononuclear cells (PBMC); test: IL-1β production from human PBMC, Cytometric Bead Array; assay type: cell-based
Experimental: as §1, §2

[3] = test system: IL-10 production from human peripheral blood mononuclear cells (PBMC); test: IL-10 production from human PBMC, Cytometric Bead Array; assay type: cell-based
Experimental: as §1, §2

[4] = test system: PBMC; test: PBMC viability, Alamar Blue; assay type: cell-based, human; settings: human PBMC, Example 2; 10 μg/ml and 40 μg/ml
Experimental: as §1

[5] = LPS 0.6 ng/ml, test compound 1 μg/ml, Table 16
[6] = LPS 0.6 ng/ml, test compound 10 μg/ml, Table 16
[7] = LPS 0.6 ng/ml, test compound 40 μg/ml, Table 16
[8] = LPS 20 ng/ml, test compound 1 μg/ml, Table 16
[9] = LPS 20 ng/ml, test compound 10 μg/ml, Table 16
[10] = LPS 20 ng/ml, test compound 40 μg/ml, Table 16
[11] = Medium, test compound 1 μg/ml, Table 16
[12] = LPS 0.6 ng/ml, test compound 1 μg/ml, Table 18
[13] = LPS 0.6 ng/ml, test compound 10 μg/ml, Table 18
[14] = LPS 0.6 ng/ml, test compound 40 μg/ml, Table 18
[15] = LPS 20 ng/ml, test compound 1 μg/ml, Table 18
[16] = LPS 20 ng/ml, test compound 10 μg/ml, Table 18
[17] = LPS 20 ng/ml, test compound 40 μg/ml, Table 18
[18] = Medium, test compound 1 μg/ml, Table 18
[19] = LPS 0.6 ng/ml, test compound 1 μg/ml, Table 17
[20] = LPS 0.6 ng/ml, test compound 10 μg/ml, Table 17
[21] = LPS 0.6 ng/ml, test compound 40 μg/ml, Table 17
[22] = LPS 20 ng/ml, test compound 1 μg/ml, Table 17
[23] = LPS 20 ng/ml, test compound 10 μg/ml, Table 17
[24] = LPS 20 ng/ml, test compound 40 μg/ml, Table 17
[25] = Medium, test compound 1 μg/ml, Table 17

COc1ccc2c(c1)c(CC(=O)O)c(C)n2C(=O)c1ccc(Cl)cc1 [Indomethacin, reference compound]
IL-1β ([2]; LPS 0.6 ng/ml, Indomethacin 0.72 ug/ml, Table 13): 3100 pg/mL
IL-1β ([2]; LPS 0.6 ng/ml, Indomethacin 7.2 ug/ml, Table 13): 4100 pg/mL
IL-1β ([2]; LPS 20 ng/ml, Indomethacin 0.72 ug/ml, Table 13): 6460 pg/mL
IL-1β ([2]; LPS 20 ng/ml, Indomethacin 7.2 ug/ml, Table 13): 6120 pg/mL
IL-1β ([2]; LTA 1.25 μg/ml, Indomethacin 0.72 ug/ml, Table 13): 7530 pg/mL
IL-1β ([2]; LTA 1.25 μg/ml, Indomethacin 7.2 ug/ml, Table 13): 8910 pg/mL
IL-1β ([2]; Medium, Indomethacin 0.72 ug/ml, Table 13): 10 pg/mL
IL-1β ([2]; Medium, Indomethacin 7.2 ug/ml, Table 13): 40 pg/mL
IL-10 ([3]; LPS 0.6 ng/ml, Indomethacin 0.72 ug/ml, Table 12): 37.3 pg/mL
IL-10 ([3]; LPS 0.6 ng/ml, Indomethacin 7.2 ug/ml, Table 12): 45.7 pg/mL
IL-10 ([3]; LPS 20 ng/ml, Indomethacin 0.72 ug/ml, Table 12): 108.0 pg/mL
IL-10 ([3]; LPS 20 ng/ml, Indomethacin 7.2 ug/ml, Table 12): 77.9 pg/mL
IL-10 ([3]; LTA 1.25 μg/ml, Indomethacin 0.72 ug/ml, Table 12): 84.9 pg/mL
IL-10 ([3]; LTA 1.25 μg/ml, Indomethacin 7.2 ug/ml, Table 12): 90.4 pg/mL
IL-10 ([3]; Medium, Indomethacin 0.72 ug/ml, Table 12): 0.0 pg/mL
IL-10 ([3]; Medium, Indomethacin 7.2 ug/ml, Table 12): 0.0 pg/mL

rhBD2: recombinant hBD2, which is identical to hBD2 as used in Example 1 (GIGDPVTCLKSGAICHPVFCPRRYKQIGTCGLPGTKCCKKP; not fully specified; ends and bridges not checked; UniProt O15263 24-64, looked up)
TNF [1, 5]: 196 pg/mL
TNF % of control [1, 5]: 27%
TNF [1, 6]: 125 pg/mL
TNF % of control [1, 6]: 17%
TNF [1, 7]: 74 pg/mL
TNF % of control [1, 7]: 10%
TNF [1, 8]: 918 pg/mL
TNF % of control [1, 8]: 42%
TNF [1, 9]: 260 pg/mL
TNF % of control [1, 9]: 12%
TNF [1, 10]: 167 pg/mL
TNF % of control [1, 10]: 8%
TNF [1, 11]: 1 pg/mL
TNF ([1]; Medium, test compound 10 μg/ml, Table 16): 0 pg/mL
TNF ([1]; Medium, test compound 40 μg/ml, Table 16): 0 pg/mL
IL-1β [2, 12]: 284 pg/mL
IL-1β % of control [2, 12]: 38%
IL-1β [2, 13]: 214 pg/mL
IL-1β % of control [2, 13]: 29%
IL-1β [2, 14]: 124 pg/mL
IL-1β % of control [2, 14]: 17%
IL-1β [2, 15]: 1480 pg/mL
IL-1β % of control [2, 15]: 58%
IL-1β [2, 16]: 624 pg/mL
IL-1β % of control [2, 16]: 25%
IL-1β [2, 17]: 395 pg/mL
IL-1β % of control [2, 17]: 16%
IL-1β [2, 18]: 0 pg/mL
IL-1β ([2]; Medium, test compound 10 μg/ml, Table 18): 0 pg/mL
IL-1β ([2]; Medium, test compound 40 μg/ml, Table 18): 0 pg/mL
IL-10 [3, 19]: 72 pg/mL
IL-10 % of control [3, 19]: 108%
IL-10 [3, 20]: 103 pg/mL
IL-10 % of control [3, 20]: 155%
IL-10 [3, 21]: 108 pg/mL
IL-10 % of control [3, 21]: 162%
IL-10 [3, 22]: 126 pg/mL
IL-10 % of control [3, 22]: 113%
IL-10 [3, 23]: 243 pg/mL
IL-10 % of control [3, 23]: 218%
IL-10 [3, 24]: 281 pg/mL
IL-10 % of control [3, 24]: 252%
IL-10 [3, 25]: 0 pg/mL
IL-10 ([3]; Medium, test compound 10 μg/ml, Table 17): 0 pg/mL
IL-10 ([3]; Medium, test compound 40 μg/ml, Table 17): 0 pg/mL

hBD3: human beta defensin 3, SEQ ID NO:3; prepared using chemical synthesis, Peptide Institute Inc. (GIINTLQKYYCRVRGGRCAVLSCLPKEEQTGKCSTRGRKCCRRKK; ends and bridges not checked; cysteine pairing not given here; listed as Homo sapiens)
TNF [1, 5]: 528 pg/mL
TNF % of control [1, 5]: 73%
TNF [1, 8]: 451 pg/mL
TNF % of control [1, 8]: 21%
TNF [1, 11]: 0 pg/mL
IL-1β [2, 12]: 331 pg/mL
IL-1β % of control [2, 12]: 45%
IL-1β [2, 15]: 568 pg/mL
IL-1β % of control [2, 15]: 22%
IL-1β [2, 18]: 0 pg/mL
IL-10 [3, 19]: 71 pg/mL
IL-10 % of control [3, 19]: 107%
IL-10 % of control [3, 22]: 137%
IL-10 [3, 25]: 0 pg/mL
toxicity to the cells [4]: toxic to the cells
